Laboratory results published in US20250224399A1, “METHOD FOR DETECTING HOMOCYSTEINE IN PLASMA AND METHOD FOR DIAGNOSING GLIOBLASTOMA BY USING NOVEL FLUORESCENT PROBE” (UNIVERSITY-INDUSTRY COOPERATION GROUP OF KYUNG HEE …, priority 2022, published 2025).

Key:
[1] = Homocysteine reaction time and selectivity among amino thiols (fluorescence over 0 to 30 minutes); conditions: pH 7.4 PBS buffer
Procedure: In order to identify whether Compound 1 (NPO-pyr) would react with various types of aminothiols including homocysteine under neutral conditions (pH 7.4), Compound 1 and aminothiol were added to an aqueous solution of neutral conditions (pH 7.4, PBS buffer) and the fluorescence emission graph was measured.
Specifically, Compound 1 (10 μM) was reacted with homocysteine (DL-homocysteine, 10 μM), cysteine (10 μM), glutathione (L-glutathione, 10 μM), and hydrogen sulfide (10 μM) in an aqueous solution (pH 7.4, PBS buffer), and the fluorescence value was measured (excitation wavelength: 460 nm). Amino thiols including homocysteine were purchased from Sigma, TCI, and a fluorophotometer (SHIMADZU CORP. RF-6000, Japan) was used for fluorescence spectra analysis. In this connection, the cell that puts the compound into each device was a standard quartz cell with a thickness of 1 cm (internal volume=[…]).

[2] = Selectivity toward biomolecules, thiols and metal ions (fluorescence at 550 nm); conditions: pH 7.4 PBS buffer, excitation 460 nm, emission 550 nm
Procedure: An aqueous solution (pH 7.4, PBS buffer) was used, and metal ions were purchased from Aldrich, Oriental Chemicals, Samchun chemicals, and Duksan chemicals. Compound 1 was dissolved in dimethyl sulfoxide (DMSO) at 10 mM and used, and the amount of dimethyl sulfoxide was controlled to be the same in each solvent (less than 1%) under the final solvent conditions used. The concentration of Compound 1 was 10 μM, and the biomolecule was treated identically at 10 μM. The excitation wavelength was 460 nm, and the fluorescence value at a fluorescence wavelength of 550 nm was measured using a fluorescence spectrophotometer, and is shown in FIG. 3.
The types of ions indicated on the horizontal axis in the graph of FIG. 3 are as follows: • (A) Probe 1 with DL-Homocysteine; • (B) Probe 1 with L-Cysteine; • (C) Probe 1 with L-Glutathion; • (D) Probe 1 with Hydrogen sulfide; • (E) Probe 1 with Bovine Serum Albumin; • (F) Probe 1 with Holmium (III) chloride; • (G) Probe 1 with Iron (II) chloride; • (H) Probe 1 with Iron (III) chloride; • (I) Probe 1 with Magnesium chloride; • (J) Probe 1 with Nikel (II) chloride; • (K) Probe 1 with Phosphorus pentachloride; • (L) Probe 1 with Gold trichloride; • (M) Probe 1 with Palladium (II) chloride; • (N) Probe 1 with potassium chloride; • (O) Probe 1 with Silver nitrate; • (P) Probe 1 with Sodium chloride; and • (Q) Probe 1 with Cobalt chloride.

[3] = pH-dependent homocysteine sensing ability (fluorescence at 550 nm); conditions: 10 μM probe, 10 μM homocysteine, stirred 10 minutes, excitation 460 nm, emission 550 nm
Procedure: The present inventors identified the homocysteine sensing ability of Compound 1 (NPO-pyr) according to acidity (pH).
Specifically, in order to observe the sensitivity of acidity (pH) to homocysteine based on the fluorescence turning-on of Compound 1, the sensitivity was identified under various acidity conditions (pH 3 to 9) while fixing the concentrations of Compound 1 (10 μM) and homocysteine (10 μM). In other words, 10 µM of homocysteine was treated under the conditions of pH 3, 5, 7, 7.4, and 9, respectively, and 10 μM of Compound 1 was stirred for 10 minutes, and then the fluorescence intensity was measured. In this connection, an excitation wavelength of 460 nm was used, and a fluorescence emission wavelength of 550 nm was measured. The fluorescence intensity is shown in the bar graph in FIG. 4.

[4] = Homocysteine sensing ability in mouse plasma (limit of detection); conditions: probe 10 μM, 10 minutes at 37° C., excitation 460 nm
Procedure: (§1) In order to identify the detection ability of Compound 1 (NPO-pyr) for homocysteine present in mouse plasma and feces, plasma (20 μL) isolated from blood and an extract (9.5 mg) extracted from mouse feces were dissolved in an aqueous solution (DI. H2O) (5 mL), treated with homocysteine at various concentrations (1 to 160 ng/μL), and then treated with Compound 1 (10 μM). After stirring for 10 minutes in a stirrer at 37° C. for reaction, the fluorescence spectrum was measured (excitation wavelength: 460 nm). Compound 1 was dissolved in DMSO solution at […] and used, and the amount of DMSO was ensured to be the same in each container (less than 1%) under the final solvent conditions used.

[5] = Homocysteine sensing ability in mouse feces; conditions: extract of mouse feces, probe 10 μM, 10 minutes at 37° C., excitation 460 nm
Procedure: as §1

[6] = Fluorescence intensity in plasma of glioblastoma mice versus normal mice; set-up: species or system mouse; conditions: plasma 7 and 14 days after the induction of glioblastoma, excitation 460 nm, emission 550 nm
Procedure: First, in order to prepare the experimental group, a glioblastoma mouse model was created by administering a solution containing 5.0×10^5 cells in 5 μL of cell culture media without fetal bovine serum (FBS) using LUC-U87MG cells (glioblastoma cells) to the mouse brain (thalamus).
In order to identify the reaction between Compound 1 and mouse plasma, a fluorescence measuring device (Spectro-fluorophotometer: SHIMADZU CORP. RF-6000, Japan) was used. The glass cuvette used for fluorescence measurements was a standard quartz cell with a thickness of 1 cm on all sides (internal volume=0.1 cm, Hellma Analytics, Jena, Germany).
In addition, in order to identify the reaction between Compound 1 and mouse plasma, blood was collected from the control group and the experimental group, the plasma was isolated, reacted with Compound 1, and then the fluorescence intensity was measured at an emission wavelength of 550 nm using a fluorescence measuring device (Spectro-fluorophotometer; SHIMADZU CORP. RF-6000, Japan) (excitation wavelength: 460 nm). The glass cuvette used for fluorescence measurements was a standard quartz cell with a thickness of 1 cm on all sides (internal volume=0.1 cm, Hellma Analytics, Jena, Germany).

[7] = Stability in aqueous solution; assay type: physicochemical; conditions: pH 7.4, PBS buffer

Q: What does the source list for `O=[N+]([O-])c1ccc(Oc2ccncc2)c2nonc12` [Compound 1, 4-nitro-7-(pyridine-4-yloxy)benzo[c] [1,2,5] oxadiazole]?
A: time to increase in fluorescence after the addition of homocysteine (reaction time) ([1]; 10 μM probe, 10 μM homocysteine, excitation 460 nm): ≤ 5 min; fluorescence emission with other amino thiols except homocysteine ([1]; cysteine, glutathione, hydrogen sulfide, each 10 μM): no fluorescence emission was observed; fluorescence intensity with homocysteine (A) ([2]; 10 μM probe, 10 μM DL-homocysteine): strong fluorescence intensity value; fluorescence turn-on under amino thiol, metal ion and biomolecule conditions other than homocysteine ([2]; 10 μM probe, 10 μM analyte): little fluorescence turn-on phenomenon; fluorescence intensity, probe alone (Only NPO-pyr) ([2]; 10 μM): almost no fluorescence intensity value; sensitivity of the reaction with homocysteine at other pHs (3, 5, 9) [3]: relatively weak; sensitivity of the reaction with homocysteine at pH 7 and 7.4 [3]: most sensitive; LOD value for homocysteine [4]: 0.176 ppm; LOD value for homocysteine ([4]; printed conversion of the ppm value): 1.3 µM; ability to sense homocysteine in mouse feces [5]: potential to sense homocysteine; fluorescence intensity in plasma of the experimental group (glioblastoma mice) compared to the control group (normal mice) [6]: stronger fluorescence intensity; stability in an aqueous solution [7]: showed stability
